Measured values: US7060678B2, “Peptides comprising furanoid sugar amino acids for the treatment of cancer” (Dabur Research Foundation, priority 2003, dated 2006)
Like-named read-outs stand apart in the source and are kept apart here. Starred links: 1 amine or outer side, 2 acyl side, 3 side chain; linkers in the order of their positions; H or OH if unused. Non-standard residues stand in square brackets, D forms with d. Residues, ends and D or L forms follow the SMILES beside them. X2 = O=C([C@@H]1CC[C@H](CN[*:1])O1)[*:2]; X1 = O=C(C1CCC(CN[*:1])O1)[*:2]

Tests used:
PA1 (human ovary) = assay: MTT cytotoxicity assay, PA1 cells; type: cell-based; conditions: human, 48 hours
Source text: (§1) The following cell lines were used.

PTC (colon) = assay: MTT cytotoxicity assay, PTC cells; type: cell-based, human; conditions: 48 hours
Source text: as §1

HeP-2 (larynx) = assay: MTT cytotoxicity assay, HeP-2 cells; type: cell-based, human; conditions: 48 hours
Source text: as §1

[1] = tested on: MiaPaCa.2 (human pancreas); assay: MTT cytotoxicity assay, MiaPaCa.2 cells; type: cell-based; conditions: 48 hours
Source text: as §1

ECV-304 (endothelial) = conditions: ECV-304 cells, 48 hours, NA = Not Active
Source text: Although sterile phosphate buffered saline was used to prepare each stock solution for the testing described in the following example, other diluents may be used such as buffered saline, isotonic NaCl, Ringer's solution, water, distilled water, polyethylene glycol (neat or in water), Tween in water, dimethylsulfoxide up to 50% in water, propylene glycol (neat or in water), phosphate buffered saline, balanced salt solution, glycerol, and other conventional fluids that are suitable for parentral administration. To obtain a pH in the range of approximately 3.5 to 7.0, for each stock solution, the pH can be adjusted by using 1N HCl for lowering the pH or 1N NaOH for raising the pH, although other buffers such as citrate buffer, phosphate buffer and the like or other conventional agents for adjusting the pH can be used.
The MTT assay is based on the principle of uptake of MTT [3-[4,5-dimethylthiazol-2-yl]-2,5-diphenyl tetrazolium bromide], a tetrazolium salt, by the metabolically active cells where it is metabolized by active mitochondria into a blue colored formazan product which can be read spectrophotometrically. […] The formazan crystals formed inside the cells were dissolved with a detergent comprising of 10% Sodium dodecyl sulfate and 0.01 N HCl and optical density read on a multi-scan ELISA reader. The optical density was directly proportional to the number of proliferating and metabolically active cells. The following cell lines were used. PA1(human ovary), PTC (colon), HeP-2 (larynx), MiaPaCa.2 (human pancreas), KB (oral), ECV-304 (endothelial) and HeP-G2 (liver).

HeP-G2 (liver) = assay: MTT cytotoxicity assay, HeP-G2 cells; type: cell-based, human; conditions: 48 hours
Source text: as §1

KB (oral) = assay: MTT cytotoxicity assay, KB cells; type: cell-based, human; conditions: 48 hours
Source text: as §1

[2] = tested on: human colon adenocarcinoma (PTC) xenografts; assay: In vivo antitumour activity on primary tumor (colon) xenografted mice; set-up: species or system Balb/c athymic mice; conditions: PTC xenografts in nude mice; intravenously 0.5 mg/Kg. B. Wt twice a day; till day 21
Description: The antitumor activity of the peptide (SEQ ID NO: 12) was studied in human colon adenocarcinoma (PTC) xenografts in nude mice. PTC tumor xenografts were grown in Balb/c athymic mice by subcutaneous inoculation of a single cell suspension of PTC cells (15×10^6 cells/100 μL). The tumor bearing animals were divided into 2 groups of five animals each including one group comprising untreated control animals. Treatment with novel peptide was initiated when the average tumor volumes, as measured using a vernier caliper, were between 400–800 mm^3. Solution of SEQ ID NO 12 was prepared at a concentration of 100 μg/ml and intravenously administered to the assigned group of tumor bearing animals at a dose of 0.5 mg/Kg. B. Wt twice a day so that the total dose of 1 mg/Kg. B. Wt was administered to each animal. The treatment was continued for a period of 21 days.
The antitumor activity of the compounds was monitored by measuring tumor volumes every fourth day using the formula W*W*L*0.4 (W=smaller diameter, L=larger diameter). The percentage inhibition of tumor growth was calculated using the formula (1-tumor volume-treated/tumor volume-control)* 100.

| SMILES | Percent Cytotoxicity (PA1 (human ovary); 1 nM) [%] | Percent Cytotoxicity (PA1 (human ovary); 10 nM) [%] | Percent Cytotoxicity (PA1 (human ovary); 100 nM) [%] | Percent Cytotoxicity (PA1 (human ovary); 1 μM) [%] | Percent Cytotoxicity (PTC (colon); human, 1 nM) [%] | Percent Cytotoxicity (PTC (colon); human, 10 nM) [%] | Percent Cytotoxicity (PTC (colon); human, 100 nM) [%] | Percent Cytotoxicity (HeP-2 (larynx); human, 1 nM) [%] | Percent Cytotoxicity (HeP-2 (larynx); human, 10 nM) [%] | Percent Cytotoxicity (HeP-2 (larynx); human, 100 nM) [%] | Percent Cytotoxicity (HeP-2 (larynx); human, 1 μM) [%] | Percent Cytotoxicity ([1]; human, 1 nM) [%] | Percent Cytotoxicity ([1]; human, 10 nM) [%] | Percent Cytotoxicity ([1]; human, 100 nM) [%] | Percent Cytotoxicity ([1]; human, 1 μM) [%] | Percent Cytotoxicity (ECV-304 (endothelial); peptide 1 nM) [%] | Percent Cytotoxicity (ECV-304 (endothelial); peptide 10 nM) [%] | Percent Cytotoxicity (ECV-304 (endothelial); peptide 100 nM) [%] | Percent Cytotoxicity (ECV-304 (endothelial); peptide 1 μM) [%] | also measured |
| --- | --- | --- | --- | --- | --- | --- | --- | --- | --- | --- | --- | --- | --- | --- | --- | --- | --- | --- | --- | --- |
| CSCC[C@H](N)C(=O)NC[C@H]1CC[C@@H](C(=O)N[C@@H](Cc2ccc(O)cc2)C(=O)N[C@@H](CC(C)C)C(=O)O)O1 [SEQ ID NO: 17, Met-Saa4-Tyr-Leu] | 18.2 ± 1.1 | 17.8 ± 1.7 | 15.9 ± 0.6 | 6.0 ± 0.7 | 12.0 ± 1.7 | 11.9 ± 1.4 | 10.4 ± 0.6 | 33.6 ± 2.7 | 31.7 ± 3.2 | 29.0 ± 0.4 | 27.9 ± 2.9 | 23.0 ± 2.1 | 21.8 ± 1.9 | 17.0 ± 0.9 | 16.0 ± 1.4 | 16.4 ± 1.9 | 13.9 ± 0.5 | 11.9 ± 1.1 |  | Percent Cytotoxicity (PTC (colon); human, 1 μM): 8.4 ± 1.0%; Percent Cytotoxicity (HeP-G2 (liver); human, 1 nM): 12.8 ± 0.6%; Percent Cytotoxicity (HeP-G2 (liver); human, 10 nM): 17.9 ± 1.4%; Percent Cytotoxicity (HeP-G2 (liver); human, 100 nM): 20.9 ± 1.4%; Percent Cytotoxicity (HeP-G2 (liver); human, 1 μM): 12.0 ± 0.7% |
| CSCC[C@H](NC(=O)[C@@H](N)CC(C)C)C(=O)NC[C@H]1CC[C@@H](C(=O)N[C@H](C(=O)N[C@@H](Cc2ccc(O)cc2)C(=O)N[C@@H](CC(C)C)C(=O)N[C@@H](CCCCN)C(=O)O)[C@@H](C)O)O1 [SEQ ID NO: 9, Leu-Met-Saa4-Thr-Tyr-Leu-Lys] (H-LM[X2]TYLK-OH) |  |  |  |  |  |  |  |  |  |  |  |  |  |  |  | 12.8 ± 1.4 | 15.8 ± 1.1 | 10.4 ± 2.0 | 7.9 ± 0.4 | Percent Cytotoxicity (PTC (colon); PTC cells, peptide 1 nM, NA = Not Active): 33.5 ± 2.9%; Percent Cytotoxicity (PTC (colon); PTC cells, peptide 10 nM, NA = Not Active): 31.9 ± 2.8%; Percent Cytotoxicity (PTC (colon); PTC cells, peptide 100 nM, NA = Not Active): 29.5 ± 2.7%; Percent Cytotoxicity (PTC (colon); PTC cells, peptide 1 μM, NA = Not Active): 26.0 ± 2.2%; Percent Cytotoxicity (HeP-2 (larynx); HeP-2 cells, peptide 1 nM, NA = Not Active): 20.9 ± 2.0%; Percent Cytotoxicity (HeP-2 (larynx); HeP-2 cells, peptide 10 nM, NA = Not Active): 21.0 ± 1.9%; Percent Cytotoxicity (HeP-2 (larynx); HeP-2 cells, peptide 100 nM, NA = Not Active): 18.8 ± 1.9%; Percent Cytotoxicity (HeP-2 (larynx); HeP-2 cells, peptide 1 μM, NA = Not Active): 14.6 ± 1.6%; Percent Cytotoxicity ([1]; MiaPaCa.2 cells, peptide 1 nM, NA = Not Active): 14.8 ± 2.9%; Percent Cytotoxicity ([1]; MiaPaCa.2 cells, peptide 10 nM, NA = Not Active): 12.9 ± 1.5%; Percent Cytotoxicity ([1]; MiaPaCa.2 cells, peptide 100 nM, NA = Not Active): 9.3 ± 1.1%; Percent Cytotoxicity ([1]; MiaPaCa.2 cells, peptide 1 μM, NA = Not Active): 5.9 ± 0.0%; Percent Cytotoxicity (KB (oral); KB cells, peptide 1 nM, NA = Not Active): 14.5 ± 1.8%; Percent Cytotoxicity (KB (oral); KB cells, peptide 10 nM, NA = Not Active): 12.5 ± 1.9%; Percent Cytotoxicity (KB (oral); KB cells, peptide 100 nM, NA = Not Active): 10.5 ± 1.2%; Percent Cytotoxicity (HeP-G2 (liver); HeP-G2 cells, peptide 1 nM, NA = Not Active): 11.2 ± 1.1%; Percent Cytotoxicity (HeP-G2 (liver); HeP-G2 cells, peptide 10 nM, NA = Not Active): 10.7 ± 1.1% |
| CSCC[C@H](NC(=O)[C@@H](N)CC(C)C)C(=O)N[C@@H](Cc1ccc(O)cc1)C(=O)NCC1CCC(C(=O)N[C@@H](Cc2ccc(O)cc2)C(=O)N[C@@H](CC(C)C)C(=O)N[C@@H](CCCCN)C(=O)O)O1 (stereo partly drawn) [SEQ ID NO: 12, Leu-Met-Tyr-Saa3-Tyr-Leu-Lys] (H-LMY[X1]YLK-OH) | 20.2 ± 2.1 | 24.6 ± 2.7 | 39.3 ± 3.0 | 32.1 ± 2.0 | 12.7 ± 1.8 | 14.8 ± 1.9 | 10.8 ± 2.0 | 21.9 ± 2.9 | 39.3 ± 3.2 | 32.2 ± 1.9 | 28.9 ± 3.2 | 23.8 ± 3.2 | 30.6 ± 3.9 | 21.9 ± 0.2 | 13.9 ± 2.7 | 32.0 ± 3.9 | 36.9 ± 3.2 | 27.9 ± 2.9 | 22.2 ± 2.2 | Percent Cytotoxicity (KB (oral); human, 1 nM): 32.9 ± 4.3%; Percent Cytotoxicity (KB (oral); human, 10 nM): 37.4 ± 2.9%; Percent Cytotoxicity (KB (oral); human, 100 nM): 33.2 ± 0.4%; Percent Cytotoxicity (KB (oral); human, 1 μM): 19.9 ± 1.9%; antitumor activity on PTC xenografts (tumor volume kinetics, FIG. 1) [2]: significant antitumor activity |
